Experimental data: PubChem BioAssay (NCI)
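How tested: cells in 96-well plates exposed to compound for 48 hours at five concentrations. Here, GI50 denotes the concentration required for 50% inhibition of growth. TGI denotes the concentration required for complete inhibition of growth.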

How the values were obtained:
Experiment in all cases: NCI-60 cell line screen, 48 h
[1] = system: HCC-2998 colon
[2] = system: SK-MEL-5 melanoma
[3] = system: DU-145 prostate
[4] = system: OVCAR-8 ovarian
[5] = system: NCI-H226 lung
[6] = system: SF-539 CNS
[7] = system: RPMI-8226 leukemia
[8] = system: 786-0 renal
[9] = system: UACC-257 melanoma
[10] = system: T-47D breast

SMILES	GI50 [1] [µM]	TGI [1] [µM]	GI50 [2] [µM]	TGI [2] [µM]	GI50 [3] [µM]	TGI [3] [µM]	GI50 [4] [µM]	TGI [4] [µM]	GI50 [5] [µM]	TGI [5] [µM]	GI50 [6] [µM]	TGI [6] [µM]	GI50 [7] [µM]	TGI [7] [µM]	GI50 [8] [µM]	TGI [8] [µM]	GI50 [9] [µM]	TGI [9] [µM]	GI50 [10] [µM]	TGI [10] [µM]
COc1ccc2c(c1)CCC1C2CCC2(C)C(NC(=O)CCCCC3CCSS3)CCC12 (stereo not given)	30.7	> 100	3.26	20.3	> 100	> 100	> 100	> 100	> 100	> 100	> 100	> 100	5.85	> 100	> 100	> 100	31.8	> 100	3.56	> 100
CC(C)OC(=O)c1cc(NC(=S)OC(C)C)ccc1Cl	–	> 57.5	–	33.1	–	> 62.1	–	> 64.8	–	37.6	–	30.5	–	> 76.8	–	> 55.9	–	50.9	–	> 57.6
CC1(C)N=C(N)N=C(N)N1c1ccc(CCCCCCc2ccc(S(=O)(=O)F)cc2)cc1	–	16	–	2.76	–	21.1	–	7.01	–	1.96	–	–	–	–	–	16.5	–	–	–	52
COc1cc(C(=O)/C=C/c2c(C)n([O-])c3ccc(Cl)cc3[n+]2=O)cc(OC)c1OC	12.8	38.7	12.1	> 100	4.2	> 100	3.18	> 100	32.6	> 100	11.2	27.4	3.18	33.4	13.2	92.4	19.5	> 100	3.18	27.9
O=C([CH-]C(=O)c1ccccc1)c1ccccc1.[CH2-]C.[CH2-]C.[Tl+3]	28.7	> 100	16.5	50.1	15.3	59.3	15.7	> 86.5	0.0266	2.38	23.2	86	10.4	> 66	19.2	> 100	45.6	> 100	17	> 100
COc1cc2c(cc1OC)C(Sc1ccc(Cl)cc1)c1c(nc(N)c(C#N)c1N)O2 (stereo not given)	1.72	3.25	1.39	2.71	1.67	3.05	1.39	2.76	–	–	1.61	3.03	1.42	4.8	1.37	2.7	1.58	2.96	1.29	3.65
